Source: patent US10899766B2, “Bridged piperidine derivatives” (Hoffmann-La Roche Inc., priority 2016, dated 2021)

Test system: γ-secretase
Test: Cellular γ-secretase assay (inhibition of Aβ42 secretion, AlphaLisa)
Format: cell-based
Conditions: Human neuroglioma H4 cells overexpressing human APP695 Swedish double mutation; 24 hr compound incubation; secreted Aβ42 in supernatant
Method: Cellular γ-Secretase Assay
Human neuroglioma H4 cells overexpressing human APP695 with the Swedish double mutation (K595N/M596L) were plated at 30,000 cells/well/100 μl in 96-well plates in IMDM media containing 10% FCS, 0.2 mg/l Hygromycin B and incubated at 37° C., 5% CO2.
3-4 hr post plating, compounds are a diluted in media and 50 μl is added as 1.5-fold concentrate to achieve the final concentration. Compound incubation is performed for 24 hr. Final doses typically range from 4 μM down to 0.0013 μM in half-log steps resulting in a eight point dose response curve.
Appropriate controls using vehicle only and reference compound were applied to this assay. The final concentration of Me2SO was 0.4%.
After incubation at 37° C., 5% CO2, the supernatant was subjected to quantification of secreted Aβ42 by the means of an AlphaLisa assay kit (Human Amyloid beta 1-42 Kit: Cat # AL203C, Perkin Elmer). 20 μl of the cell culture supernatant was transferred to an assay plate. Then 10 μl of a mixture of the AlphaLisa coupled capture antibody and the biotinylated detection antibody was added and incubated for 3 hours at room temperature while softly shaking the assay plate. After a further addition of 20 μl of the Donor beads the assay plate was incubated for 30 min at room temperature and constant shaking without exposure to direct light.
The assay plate was then read on a Paradigm AlphaLisa Reader using the build-in program with excitation at 680 nm and emission at […].
The measured signals were then used to calculate IC50 values for inhibition of Aβ42 secretion by nonlinear regression fit analysis using XLfit 5.3 software (IDBS).

Compound | EC50 [nM]
Fc1ccc(N2CCCn3nc(N[C@@H]4[C@@H]5CC[C@H]4CN(c4ccnc(C(F)(F)F)c4)C5)nc32)cc1F [Example 1, 4-(3,4-difluorophenyl)-N-[(1R,5S,8S)-3-[2-(trifluoromethyl)-4-pyridyl]-3-azabicyclo[3.2.1]octan-8-yl]-6,7-dihydro-5H-[1,2,4]triazolo[1,5-a]pyrimidin-2-amine] | 15.8
Fc1ccc(N2CCCn3nc(N[C@@H]4[C@@H]5CC[C@H]4CN(c4ccnc(Cl)c4)C5)nc32)cc1F [Example 2, N-[(1R,5S,8S)-3-(2-chloro-4-pyridyl)-3-azabicyclo[3.2.1]octan-8-yl]-4-(3,4-difluorophenyl)-6,7-dihydro-5H-[1,2,4]triazolo[1,5-a]pyrimidin-2-amine] | 5.9
Cc1cc(N2C[C@H]3CC[C@@H](C2)[C@@H]3Nc2nc3n(n2)CCCN3c2ccc(F)c(F)c2)ncn1 [Example 3, 4-(3,4-difluorophenyl)-N-[(1R,5S,8S)-3-(6-methylpyrimidin-4-yl)-3-azabicyclo[3.2.1]octan-8-yl]-6,7-dihydro-5H-[1,2,4]triazolo[1,5-a]pyrimidin-2-amine] | 26.4
Fc1ccc(N2CCn3nc(N[C@@H]4[C@@H]5CC[C@H]4CN(c4ccnc(C(F)(F)F)c4)C5)nc32)cc1F [Example 4, 4-(3,4-difluorophenyl)-N-[(1R,5S,8S)-3-[2-(trifluoromethyl)-4-pyridyl]-3-azabicyclo[3.2.1]octan-8-yl]-5,6-dihydroimidazo[1,2-b][1,2,4]triazol-2-amine] | 89.2
Cc1cc(N2C[C@H]3CC[C@@H](C2)[C@@H]3Nc2nc3n(n2)CCN3c2ccc(F)c(F)c2)ncn1 [Example 5, 4-(3,4-difluorophenyl)-N-[(1R,5S,8S)-3-(6-methylpyrimidin-4-yl)-3-azabicyclo[3.2.1]octan-8-yl]-5,6-dihydroimidazo[1,2-b][1,2,4]triazol-2-amine] | 35.6
FC(F)(F)c1ccc(N2CCCn3nc(N[C@@H]4[C@@H]5CC[C@H]4CN(c4ccnc(C(F)(F)F)c4)C5)nc32)cc1 [Example 6, 4-[4-(trifluoromethyl)phenyl]-N-[(1R,5S,8S)-3-[2-(trifluoromethyl)-4-pyridyl]-3-azabicyclo[3.2.1]octan-8-yl]-6,7-dihydro-5H-[1,2,4]triazolo[1,5-a]pyrimidin-2-amine] | 21.4
FC(F)(F)c1ccc(N2CCCCn3nc(N[C@@H]4[C@@H]5CC[C@H]4CN(c4ccnc(C(F)(F)F)c4)C5)nc32)cc1 [Example 7, 4-[4-(trifluoromethyl)phenyl]-N-[(1R,5S,8S)-3-[2-(trifluoromethyl)-4-pyridyl]-3-azabicyclo[3.2.1]octan-8-yl]-5,6,7,8-tetrahydro-[1,2,4]triazolo[1,5-a][1,3]diazepin-2-amine] | 30.2
Cc1cc(N2C[C@H]3CC[C@@H](C2)[C@@H]3Nc2nc3n(n2)CCCN3c2ccc(C(F)(F)F)cc2)ncn1 [Example 8, N-[(1R,5S,8S)-3-(6-methylpyrimidin-4-yl)-3-azabicyclo[3.2.1]octan-8-yl]-4-[4-(trifluoromethyl)phenyl]-6,7-dihydro-5H-[1,2,4]triazolo[1,5-a]pyrimidin-2-amine] | 11.7
Cc1cc(N2C[C@H]3CC[C@@H](C2)[C@@H]3Nc2nc3n(n2)CCCCN3c2ccc(C(F)(F)F)cc2)ncn1 [Example 9, N-[(1R,5S,8S)-3-(6-methylpyrimidin-4-yl)-3-azabicyclo[3.2.1]octan-8-yl]-4-[4-(trifluoromethyl)phenyl]-5,6,7,8-tetrahydro-[1,2,4]triazolo[1,5-a][1,3]diazepin-2-amine] | 19.2
Cc1ccc(N2CCCn3nc(N[C@@H]4[C@@H]5CC[C@H]4CN(c4ccnc(C(F)(F)F)c4)C5)nc32)cc1F [Example 10, 4-(3-fluoro-4-methyl-phenyl)-N-[(1R,5S,8S)-3-[2-(trifluoromethyl)-4-pyridyl]-3-azabicyclo[3.2.1]octan-8-yl]-6,7-dihydro-5H-[1,2,4]triazolo[1,5-a]pyrimidin-2-amine] | 31.2
